Like-named read-outs stand apart in the source and are kept apart here.
What was measured:
[1] = test system: MDM2; details: read-out: MDM2–p53 IC50; cited from earlier work
[2] = test system: SJSA-1 cells; assay type: cell-based; details: SJSA-1 (MDM2 amplified, p53wt), 5 μM, 4 h
[3] = target: T1, MDMX–p53 (Homo sapiens, UniProt O15151); test: MDMX–p53 ELISA binding assay; details: read-out: MDMX IC50
T1 construct: host or cells: in vitro coupled T7 transcription and rabbit reticulocyte lysate translation
T1 sequence (O15151 1-490): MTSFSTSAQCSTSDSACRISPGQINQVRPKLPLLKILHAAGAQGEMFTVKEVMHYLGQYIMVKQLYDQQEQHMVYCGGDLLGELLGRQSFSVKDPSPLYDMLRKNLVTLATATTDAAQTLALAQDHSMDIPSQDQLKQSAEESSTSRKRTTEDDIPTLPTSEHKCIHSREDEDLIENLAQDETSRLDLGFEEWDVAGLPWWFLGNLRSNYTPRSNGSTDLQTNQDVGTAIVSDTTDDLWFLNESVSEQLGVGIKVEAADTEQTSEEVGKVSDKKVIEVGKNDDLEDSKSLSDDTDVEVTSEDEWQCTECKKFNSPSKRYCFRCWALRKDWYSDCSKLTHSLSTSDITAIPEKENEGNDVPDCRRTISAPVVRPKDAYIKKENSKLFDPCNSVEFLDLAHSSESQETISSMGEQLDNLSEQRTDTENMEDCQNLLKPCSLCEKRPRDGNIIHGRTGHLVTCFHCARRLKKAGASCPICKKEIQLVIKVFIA

[4] = target: MDM2–p53 (Homo sapiens, UniProt Q00987); test: MDM2–p53 ELISA protein–protein binding assay
[5] = test system: SJSA-1; test: Growth inhibitory activity, SJSA-1; details: Homo sapiens, SJSA-1, read-out: GI50 SJSA-1
Experimental: (§1) Growth inhibitory activity was determined for selected pyrroles in a panel of cell lines with defined MDM2, MDMX and p53 status (Table 5).

[6] = test system: A2780CP70 cells; assay type: cell-based; details: A2780 CP70 (p53 mutant), 0.1, 0.2 and 5 μM, 4 h
[7] = test system: SN40R2; test: Growth inhibitory activity, SN40R2; details: read-out: GI50 SN40R2
Experimental: as §1

[8] = test system: A2780 cells; assay type: cell-based; details: A2780 (p53wt), 0.1, 0.2 and 5 μM, 4 h
[9] = test system: MRK-NU-1; test: Growth inhibitory activity, MRK-NU-1; details: Homo sapiens, MRK-nu-1, read-out: GI50 MRK-NU-1
Experimental: as §1

Sequence of MDM2–p53 (Q00987 whole entry): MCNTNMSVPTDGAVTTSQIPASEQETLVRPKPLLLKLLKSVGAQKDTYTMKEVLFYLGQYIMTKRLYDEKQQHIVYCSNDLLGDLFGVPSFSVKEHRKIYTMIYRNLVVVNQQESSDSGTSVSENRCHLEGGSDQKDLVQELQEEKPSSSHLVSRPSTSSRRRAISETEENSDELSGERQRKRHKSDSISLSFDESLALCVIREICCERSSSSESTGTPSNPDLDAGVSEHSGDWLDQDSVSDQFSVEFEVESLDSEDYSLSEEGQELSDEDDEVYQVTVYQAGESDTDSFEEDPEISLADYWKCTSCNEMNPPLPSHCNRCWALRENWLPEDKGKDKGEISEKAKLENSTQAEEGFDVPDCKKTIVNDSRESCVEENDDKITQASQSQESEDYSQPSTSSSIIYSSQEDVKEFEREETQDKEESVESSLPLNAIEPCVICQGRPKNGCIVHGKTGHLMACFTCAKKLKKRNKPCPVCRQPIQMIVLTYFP

Structure (SMILES)	IC50 [1]	induction of MDM2, p53, and p21 (Western blot) [2]	IC50 [3]	IC50 [4]	fold more potent than the comparable 2,5-dimethyl analogues (4a, 4b) [4]	IC50 ([4]; read-out: MDM2 IC50)	GI50 [5]	induction of MDM2, p53, and p21 (Western blot) [6]	GI50 [7]	induction of MDM2 and p21 (Western blot) [8]	GI50 [9]
CCOc1cc(C(C)(C)C)ccc1C1=N[C@@](C)(c2ccc(Cl)cc2)[C@@](C)(c2ccc(Cl)cc2)N1C(=O)N1CCN(CCCS(C)(=O)=O)CC1 [RG-7112]	0.012 µM										
O=C1NC(=S)NC(=O)C1=Cc1cc(-c2ccccc2)n(-c2ccc(Cl)cc2)c1-c1ccccc1 [Compound 4c, 5-((1-(4-chlorophenyl)-2,5-diphenyl-1H-pyrrol-3-yl)methylene)-2-thioxodihydropyrimidine-4,6(1H,5H)-dione]		clearly visible	4.2 ± 1.2 µM	0.12 ± 0.02 µM	5–10 fold	0.11 ± 0.03 µM	2.3 ± 0.2 µM	no induction	2.8 ± 0.6 µM	observed	2.3 ± 0.3 µM

From PMC3777193, “Diaryl- and triaryl-pyrrole derivatives: inhibitors of the MDM2–p53 and MDMX–p53 protein–protein interactions” (Medchemcomm, 2013)
